Data published in the supplement of paper PMC10307832.

Experiments:
Assay in all cases: relative viability (nuclei count vs DMSO), 5 days (fraction); higher = more cells survive
[1] = tested on: EPLC-272H
In short: (§1)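 Five library-drug doses in √10 steps were combined with a fixed anchor-drug dose, or a single drug was given alone, by pin tool to lung cancer cell lines in 1536-well plates the day after seeding. Nuclei were stained and counted after 5 days. Relative viability is the nuclei count in treated wells over that in vehicle wells, taken as the median of duplicate plates.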

[2] = tested on: NCI-H1666
In short: as §1

[3] = tested on: HCC-44
In short: as §1

[4] = tested on: NCI-H1395
In short: as §1

[5] = tested on: HOP-62
In short: as §1

[6] = tested on: NCI-H2087
In short: as §1

[7] = tested on: NCI-H2342
In short: as §1

[8] = tested on: NCI-H2085
In short: as §1

[9] = tested on: LU99A
In short: as §1

[10] = tested on: NCI-H358
In short: as §1

[11] = tested on: EKVX
In short: as §1

[12] = tested on: HCC-827
In short: as §1

[13] = tested on: LOU-NH91
In short: as §1

[14] = tested on: 201T
In short: as §1

[15] = tested on: H3255
In short: as §1

[16] = tested on: LCLC-97TM1
In short: as §1

[17] = tested on: NCI-H647
In short: as §1

[18] = tested on: NCI-H2126
In short: as §1

[19] = tested on: NCI-H1975
In short: as §1

[20] = tested on: NCI-H1437
In short: as §1

[21] = tested on: BEN
In short: as §1

[22] = tested on: PC-3 [JPC-3]
In short: as §1

## C[C@@H]1CN(CC(=O)Nc2ccc3c(c2)Cc2cccc(-c4cc(=O)cc(N5CCOCC5)o4)c2S3)C[C@H](C)O1 + NC(=O)Nc1cc(-c2cccc(F)c2)sc1C(=O)N[C@H]1CCCNC1 [AZD7762] (partner 0.2 µM)
[1]; first compound 0.04 µM
  relative viability: 0.237
[1]; first compound 0.1265 µM
  relative viability: 0.348
[1]; first compound 0.4 µM
  relative viability: 0.226
[1]; first compound 4 µM
  relative viability: 0.321
[2]; first compound 0.04 µM
  relative viability: 0.891
[2]; first compound 0.1265 µM
  relative viability: 0.891
[2]; first compound 0.4 µM
  relative viability: 0.941
[2]; first compound 4 µM
  relative viability: 0.765
[3]; first compound 0.04 µM
  relative viability: 0.945
[3]; first compound 0.1265 µM
  relative viability: 1.01
[3]; first compound 0.4 µM
  relative viability: 1
[3]; first compound 4 µM
  relative viability: 0.913
[4]; first compound 0.1265 µM
  relative viability: 0.425
[4]; first compound 0.4 µM
  relative viability: 0.411
[4]; first compound 4 µM
  relative viability: 0.406
[5]; first compound 0.04 µM
  relative viability: 0.445
[5]; first compound 0.1265 µM
  relative viability: 0.599
[5]; first compound 0.4 µM
  relative viability: 0.739
[5]; first compound 4 µM
  relative viability: 0.624
[6]; first compound 0.04 µM
  relative viability: 1.26
[6]; first compound 0.1265 µM
  relative viability: 1.17
[6]; first compound 0.4 µM
  relative viability: 1.46
[6]; first compound 4 µM
  relative viability: 0.954
[7]; first compound 0.04 µM
  relative viability: 0.499
[7]; first compound 0.1265 µM
  relative viability: 0.495
[7]; first compound 0.4 µM
  relative viability: 0.492
[7]; first compound 4 µM
  relative viability: 0.441
[8]; first compound 0.04 µM
  relative viability: 0.959
[8]; first compound 0.1265 µM
  relative viability: 1.06
[8]; first compound 0.4 µM
  relative viability: 0.997
[8]; first compound 4 µM
  relative viability: 0.796
[9]; first compound 0.04 µM
  relative viability: 0.334
[9]; first compound 0.1265 µM
  relative viability: 0.472
[9]; first compound 0.4 µM
  relative viability: 0.465
[9]; first compound 4 µM
  relative viability: 0.363
[10]; first compound 0.04 µM
  relative viability: 0.463
[10]; first compound 0.1265 µM
  relative viability: 0.416
[10]; first compound 0.4 µM
  relative viability: 0.539
[10]; first compound 4 µM
  relative viability: 0.365
[11]; first compound 0.04 µM
  relative viability: 0.651
[11]; first compound 0.1265 µM
  relative viability: 0.751
[11]; first compound 0.4 µM
  relative viability: 0.713
[11]; first compound 4 µM
  relative viability: 0.562
[12]; first compound 0.04 µM
  relative viability: 0.205
[12]; first compound 0.1265 µM
  relative viability: 0.188
[12]; first compound 0.4 µM
  relative viability: 0.201
[12]; first compound 4 µM
  relative viability: 0.161
[13]; first compound 0.04 µM
  relative viability: 0.639
[13]; first compound 0.1265 µM
  relative viability: 0.775
[13]; first compound 0.4 µM
  relative viability: 0.65
[13]; first compound 4 µM
  relative viability: 0.706
[14]; first compound 0.04 µM
  relative viability: 0.5
[14]; first compound 0.1265 µM
  relative viability: 0.544
[14]; first compound 0.4 µM
  relative viability: 0.586
[14]; first compound 4 µM
  relative viability: 0.478
[15]; first compound 0.04 µM
  relative viability: 0.792
[15]; first compound 0.1265 µM
  relative viability: 0.765
[15]; first compound 0.4 µM
  relative viability: 0.943
[15]; first compound 4 µM
  relative viability: 0.725
[16]; first compound 0.1265 µM
  relative viability: 0.222
[16]; first compound 0.4 µM
  relative viability: 0.231
[16]; first compound 4 µM
  relative viability: 0.221
[17]; first compound 0.04 µM
  relative viability: 0.346
[17]; first compound 0.1265 µM
  relative viability: 0.46
[17]; first compound 0.4 µM
  relative viability: 0.515
[17]; first compound 4 µM
  relative viability: 0.309
[18]; first compound 0.04 µM
  relative viability: 0.91
[18]; first compound 0.1265 µM
  relative viability: 1.02
[18]; first compound 0.4 µM
  relative viability: 0.964
[18]; first compound 4 µM
  relative viability: 1.02
[19]; first compound 0.04 µM
  relative viability: 0.729
[19]; first compound 0.1265 µM
  relative viability: 0.608
[19]; first compound 0.4 µM
  relative viability: 0.624
[19]; first compound 4 µM
  relative viability: 0.585
[20]; first compound 0.04 µM
  relative viability: 1.08
[20]; first compound 0.1265 µM
  relative viability: 1.09
[20]; first compound 0.4 µM
  relative viability: 1.12
[20]; first compound 4 µM
  relative viability: 0.95
[21]; first compound 0.04 µM
  relative viability: 0.612
[21]; first compound 0.1265 µM
  relative viability: 0.566
[21]; first compound 0.4 µM
  relative viability: 0.625
[21]; first compound 4 µM
  relative viability: 0.645
[22]; first compound 0.04 µM
  relative viability: 0.777
[22]; first compound 0.1265 µM
  relative viability: 0.739
[22]; first compound 0.4 µM
  relative viability: 0.796
[22]; first compound 4 µM
  relative viability: 0.669

## COc1cc(N2CCC(C(N)=O)CC2)ccc1Nc1nc(N)c(Cl)c(Nc2ccccc2S(=O)(=O)C(C)C)n1 [HG-5-88-01] + NC(=O)Nc1cc(-c2cccc(F)c2)sc1C(=O)N[C@H]1CCCNC1 [AZD7762] (partner 0.2 µM)
[1]; first compound 0.04 µM
  relative viability: 0.215
[1]; first compound 0.1265 µM
  relative viability: 0.222
[1]; first compound 0.4 µM
  relative viability: 0.203
[1]; first compound 1.265 µM
  relative viability: 0.234
[1]; first compound 4 µM
  relative viability: 0.0657
[2]; first compound 0.04 µM
  relative viability: 0.75
[2]; first compound 0.1265 µM
  relative viability: 0.783
[2]; first compound 0.4 µM
  relative viability: 0.779
[2]; first compound 1.265 µM
  relative viability: 0.771
[2]; first compound 4 µM
  relative viability: 0.53
[3]; first compound 0.04 µM
  relative viability: 0.959
[3]; first compound 0.1265 µM
  relative viability: 0.999
[3]; first compound 0.4 µM
  relative viability: 0.995
[3]; first compound 1.265 µM
  relative viability: 1.03
[3]; first compound 4 µM
  relative viability: 0.957
[4]; first compound 0.04 µM
  relative viability: 0.366
[4]; first compound 0.1265 µM
  relative viability: 0.403
[4]; first compound 0.4 µM
  relative viability: 0.418
[4]; first compound 1.265 µM
  relative viability: 0.384
[4]; first compound 4 µM
  relative viability: 0.362
[5]; first compound 0.04 µM
  relative viability: 0.463
[5]; first compound 0.1265 µM
  relative viability: 0.736
[5]; first compound 0.4 µM
  relative viability: 0.654
[5]; first compound 1.265 µM
  relative viability: 0.55
[5]; first compound 4 µM
  relative viability: 0.584
[6]; first compound 0.04 µM
  relative viability: 1.23
[6]; first compound 0.1265 µM
  relative viability: 1.26
[6]; first compound 0.4 µM
  relative viability: 1.45
[6]; first compound 1.265 µM
  relative viability: 1.14
[6]; first compound 4 µM
  relative viability: 1.17
[7]; first compound 0.04 µM
  relative viability: 0.47
[7]; first compound 0.1265 µM
  relative viability: 0.489
[7]; first compound 0.4 µM
  relative viability: 0.447
[7]; first compound 4 µM
  relative viability: 0.408
[8]; first compound 0.04 µM
  relative viability: 1.08
[8]; first compound 0.1265 µM
  relative viability: 0.969
[8]; first compound 0.4 µM
  relative viability: 0.922
[8]; first compound 1.265 µM
  relative viability: 0.964
[8]; first compound 4 µM
  relative viability: 0.667
[9]; first compound 0.04 µM
  relative viability: 0.326
[9]; first compound 0.1265 µM
  relative viability: 0.336
[9]; first compound 0.4 µM
  relative viability: 0.369
[9]; first compound 1.265 µM
  relative viability: 0.366
[9]; first compound 4 µM
  relative viability: 0.295
[10]; first compound 0.04 µM
  relative viability: 0.498
[10]; first compound 0.1265 µM
  relative viability: 0.503
[10]; first compound 0.4 µM
  relative viability: 0.451
[10]; first compound 1.265 µM
  relative viability: 0.223
[10]; first compound 4 µM
  relative viability: 0.245
[11]; first compound 0.04 µM
  relative viability: 0.673
[11]; first compound 0.1265 µM
  relative viability: 0.622
[11]; first compound 0.4 µM
  relative viability: 0.695
[11]; first compound 4 µM
  relative viability: 0.527
[12]; first compound 0.04 µM
  relative viability: 0.313
[12]; first compound 0.1265 µM
  relative viability: 0.184
[12]; first compound 0.4 µM
  relative viability: 0.167
[12]; first compound 1.265 µM
  relative viability: 0.129
[12]; first compound 4 µM
  relative viability: 0.123
[13]; first compound 0.04 µM
  relative viability: 0.809
[13]; first compound 0.1265 µM
  relative viability: 0.677
[13]; first compound 0.4 µM
  relative viability: 0.649
[13]; first compound 1.265 µM
  relative viability: 0.551
[13]; first compound 4 µM
  relative viability: 0.514
[14]; first compound 0.04 µM
  relative viability: 0.54
[14]; first compound 0.1265 µM
  relative viability: 0.62
[14]; first compound 1.265 µM
  relative viability: 0.631
[14]; first compound 4 µM
  relative viability: 0.374
[15]; first compound 0.04 µM
  relative viability: 1.16
[15]; first compound 0.1265 µM
  relative viability: 1.01
[15]; first compound 0.4 µM
  relative viability: 0.916
[15]; first compound 4 µM
  relative viability: 0.699
[16]; first compound 0.04 µM
  relative viability: 0.251
[16]; first compound 0.1265 µM
  relative viability: 0.262
[16]; first compound 0.4 µM
  relative viability: 0.231
[16]; first compound 1.265 µM
  relative viability: 0.225
[16]; first compound 4 µM
  relative viability: 0.0952
[17]; first compound 0.04 µM
  relative viability: 0.455
[17]; first compound 0.1265 µM
  relative viability: 0.405
[17]; first compound 0.4 µM
  relative viability: 0.472
[17]; first compound 1.265 µM
  relative viability: 0.394
[17]; first compound 4 µM
  relative viability: 0.433
[18]; first compound 0.04 µM
  relative viability: 0.985
[18]; first compound 0.1265 µM
  relative viability: 1.05
[18]; first compound 0.4 µM
  relative viability: 0.961
[18]; first compound 1.265 µM
  relative viability: 1.05
[18]; first compound 4 µM
  relative viability: 0.828
[19]; first compound 0.04 µM
  relative viability: 0.757
[19]; first compound 0.1265 µM
  relative viability: 0.756
[19]; first compound 0.4 µM
  relative viability: 0.603
[19]; first compound 1.265 µM
  relative viability: 0.328
[19]; first compound 4 µM
  relative viability: 0.348
[20]; first compound 0.04 µM
  relative viability: 1.13
[20]; first compound 0.1265 µM
  relative viability: 1.13
[20]; first compound 0.4 µM
  relative viability: 1.07
[20]; first compound 4 µM
  relative viability: 1.2
[21]; first compound 0.04 µM
  relative viability: 0.47
[21]; first compound 0.1265 µM
  relative viability: 0.69
[21]; first compound 0.4 µM
  relative viability: 0.635
[21]; first compound 1.265 µM
  relative viability: 0.615
[21]; first compound 4 µM
  relative viability: 0.576
[22]; first compound 0.04 µM
  relative viability: 0.863
[22]; first compound 0.1265 µM
  relative viability: 0.703
[22]; first compound 0.4 µM
  relative viability: 0.732
[22]; first compound 1.265 µM
  relative viability: 0.713
[22]; first compound 4 µM
  relative viability: 0.344
